# From ChEMBL document CHEMBL3045522, “Responses of dry beans (Phaseolus vulgaris L.) to sulfentrazone” (Crop Prot, 2007)
# Columns and labels:
# Type in all cases: organism-based
# Phaseolus vulgaris [1] = experiment: Phytotoxicity against Phaseolus vulgaris (dry bean) assessed as visual crop injury at 840 g a.i./ha applied pre-emergence measured at 28 days post-emergence relative to control; conditions: in vivo, other, 672 h
# Phaseolus vulgaris [2] = experiment: Phytotoxicity against Phaseolus vulgaris (Yellow eye dry beans) assessed as plant height at 420 g a.i./ha applied pre-emergence measured at 28 days post-emergence (reference value: 33 +/- 1 cm); conditions: in vivo, other, 672 h
# Phaseolus vulgaris [3] = experiment: Phytotoxicity against Phaseolus vulgaris (dry bean) assessed as visual crop injury at 420 g a.i./ha applied pre-emergence measured at 14 days post-emergence relative to control; conditions: in vivo, other, 336 h
# Phaseolus vulgaris [4] = experiment: Phytotoxicity against Phaseolus vulgaris (Kidney dry beans) assessed as plant height at 840 g a.i./ha applied pre-emergence measured at 28 days post-emergence (reference value: 33 +/- 1 cm); conditions: in vivo, other, 672 h
# Phaseolus vulgaris [5] = experiment: Phytotoxicity against Phaseolus vulgaris (Cranberry dry beans) assessed as visual crop injury at 420 to 840 g a.i./ha applied pre-emergence measured at 28 days post-emergence relative to control; conditions: in vivo, other, 672 h
# Phaseolus vulgaris [6] = experiment: Phytotoxicity against Phaseolus vulgaris (Brown dry beans) assessed as plant height at 420 g a.i./ha applied pre-emergence measured at 28 days post-emergence (reference value: 33 +/- 1 cm); conditions: in vivo, other, 672 h
# Phaseolus vulgaris [7] = experiment: Phytotoxicity against Phaseolus vulgaris (Brown dry beans) assessed as plant height at 840 g a.i./ha applied pre-emergence measured at 28 days post-emergence (reference value: 33 +/- 1 cm); conditions: in vivo, other, 672 h
# Phaseolus vulgaris [8] = experiment: Phytotoxicity against Phaseolus vulgaris (Yellow eye dry beans) assessed as shoot dry weight at 420 g a.i./ha applied pre-emergence measured at 42 days post-emergence (reference value: 142 +/- 8 g/m); conditions: in vivo, other, 1008 h
# Phaseolus vulgaris [9] = experiment: Phytotoxicity against Phaseolus vulgaris (White dry beans) assessed as visual crop injury at 420 to 840 g a.i./ha applied pre-emergence measured at 28 days post-emergence relative to control; conditions: in vivo, other, 672 h
# Phaseolus vulgaris [10] = experiment: Phytotoxicity against Phaseolus vulgaris (Pinto dry beans) assessed as yield at 420 g a.i./ha applied pre-emergence (reference value: 3.1 +/- 0.1 tons/ha); conditions: in vivo, other
# Phaseolus vulgaris [11] = experiment: Phytotoxicity against Phaseolus vulgaris (dry bean) assessed as visual crop injury at 840 g a.i./ha applied pre-emergence measured at 7 days post-emergence relative to control; conditions: in vivo, other, 168 h
# Phaseolus vulgaris [12] = experiment: Phytotoxicity against Phaseolus vulgaris (Pinto dry beans) assessed as shoot dry weight at 420 g a.i./ha applied pre-emergence measured at 42 days post-emergence (reference value: 134 +/- 11 g/m); conditions: in vivo, other, 1008 h
# Phaseolus vulgaris [13] = experiment: Phytotoxicity against Phaseolus vulgaris (Yellow eye dry beans) assessed as yield at 840 g a.i./ha applied pre-emergence (reference value: 2 +/- 0.1 tons/ha); conditions: in vivo, other
# Phaseolus vulgaris [14] = experiment: Phytotoxicity against Phaseolus vulgaris (Yellow eye dry beans) assessed as plant height at 840 g a.i./ha applied pre-emergence measured at 28 days post-emergence (reference value: 33 +/- 1 cm); conditions: in vivo, other, 672 h
# Phaseolus vulgaris [15] = experiment: Phytotoxicity against Phaseolus vulgaris (Brown dry beans) assessed as shoot dry weight at 420 g a.i./ha applied pre-emergence measured at 42 days post-emergence (reference value: 123 +/- 7 g/m); conditions: in vivo, other, 1008 h
# Phaseolus vulgaris [16] = experiment: Phytotoxicity against Phaseolus vulgaris (Pinto dry beans) assessed as plant height at 420 g a.i./ha applied pre-emergence measured at 28 days post-emergence (reference value: 32 +/- 1 cm); conditions: in vivo, other, 672 h
# Phaseolus vulgaris [17] = experiment: Phytotoxicity against Phaseolus vulgaris (Brown dry beans) assessed as yield at 420 g a.i./ha applied pre-emergence (reference value: 2.3 +/- 0.1 tons/ha); conditions: in vivo, other
# Phaseolus vulgaris [18] = experiment: Phytotoxicity against Phaseolus vulgaris (Kidney dry beans) assessed as yield at 420 g a.i./ha applied pre-emergence (reference value: 1.9 +/- 0.1 tons/ha); conditions: in vivo, other
# Phaseolus vulgaris [19] = experiment: Phytotoxicity against Phaseolus vulgaris (Otebo dry beans) assessed as visual crop injury at 420 to 840 g a.i./ha applied pre-emergence measured at 28 days post-emergence relative to control; conditions: in vivo, other, 672 h
# Phaseolus vulgaris [20] = experiment: Phytotoxicity against Phaseolus vulgaris (Kidney dry beans) assessed as shoot dry weight at 420 g a.i./ha applied pre-emergence measured at 42 days post-emergence (reference value: 133 +/- 8 g/m); conditions: in vivo, other, 1008 h
# Phaseolus vulgaris [21] = experiment: Phytotoxicity against Phaseolus vulgaris (Brown dry beans) assessed as yield at 840 g a.i./ha applied pre-emergence (reference value: 2.3 +/- 0.1 tons/ha); conditions: in vivo, other
# Phaseolus vulgaris [22] = experiment: Phytotoxicity against Phaseolus vulgaris (Black dry beans) assessed as yield at 420 g a.i./ha applied pre-emergence (reference value: 3.4 +/- 0.2 tons/ha); conditions: in vivo, other
# Phaseolus vulgaris [23] = experiment: Phytotoxicity against Phaseolus vulgaris (Cranberry dry beans) assessed as reduction in yield at 840 g a.i./ha applied pre-emergence relative to control; set-up: scale not given: the % may be the effect or the level left; conditions: in vivo, other
# Phaseolus vulgaris [24] = experiment: Phytotoxicity against Phaseolus vulgaris (Pinto dry beans) assessed as yield at 840 g a.i./ha applied pre-emergence (reference value: 3.1 +/- 0.1 tons/ha); conditions: in vivo, other
# Phaseolus vulgaris [25] = experiment: Phytotoxicity against Phaseolus vulgaris (Black dry beans) assessed as reduction in yield at 840 g a.i./ha applied pre-emergence relative to control; set-up: scale not given: the % may be the effect or the level left; conditions: in vivo, other
# Phaseolus vulgaris [26] = experiment: Phytotoxicity against Phaseolus vulgaris (Cranberry dry beans) assessed as plant height at 840 g a.i./ha applied pre-emergence measured at 28 days post-emergence (reference value: 33 +/- 1 cm); conditions: in vivo, other, 672 h
# Phaseolus vulgaris [27] = experiment: Phytotoxicity against Phaseolus vulgaris (Otebo dry beans) assessed as shoot dry weight at 420 g a.i./ha applied pre-emergence measured at 42 days post-emergence (reference value: 156 +/- 10 g/m); conditions: in vivo, other, 1008 h
# Phaseolus vulgaris [28] = experiment: Phytotoxicity against Phaseolus vulgaris (White dry beans) assessed as shoot dry weight at 420 g a.i./ha applied pre-emergence measured at 42 days post-emergence (reference value: 135 +/- 11 g/m); conditions: in vivo, other, 1008 h
# Phaseolus vulgaris [29] = experiment: Phytotoxicity against Phaseolus vulgaris (dry bean) assessed as visual crop injury at 420 g a.i./ha applied pre-emergence measured at 7 days post-emergence relative to control; conditions: in vivo, other, 168 h
# Phaseolus vulgaris [30] = experiment: Phytotoxicity against Phaseolus vulgaris (Otebo dry beans) assessed as plant height at 840 g a.i./ha applied pre-emergence measured at 28 days post-emergence (reference value: 31 +/- 2 cm); conditions: in vivo, other, 672 h
# Phaseolus vulgaris [31] = experiment: Phytotoxicity against Phaseolus vulgaris (White dry beans) assessed as yield at 420 g a.i./ha applied pre-emergence (reference value: 2.9 +/- 0.1 tons/ha); conditions: in vivo, other
# Phaseolus vulgaris [32] = experiment: Phytotoxicity against Phaseolus vulgaris (White dry beans) assessed as reduction in shoot dry weight at 840 g a.i./ha applied pre-emergence measured at 42 days post-emergence relative to control; set-up: scale not given: the % may be the effect or the level left; conditions: in vivo, other, 1008 h
# Phaseolus vulgaris [33] = experiment: Phytotoxicity against Phaseolus vulgaris (Pinto dry beans) assessed as shoot dry weight at 840 g a.i./ha applied pre-emergence measured at 42 days post-emergence (reference value: 134 +/- 11 g/m); conditions: in vivo, other, 1008 h
# Phaseolus vulgaris [34] = experiment: Phytotoxicity against Phaseolus vulgaris (Black dry beans) assessed as shoot dry weight at 420 g a.i./ha applied pre-emergence measured at 42 days post-emergence (reference value: 136 +/- 9 g/m); conditions: in vivo, other, 1008 h
structure (smiles),measurement,setting,value
Cc1nn(-c2cc(NS(C)(=O)=O)c(Cl)cc2Cl)c(=O)n1C(F)F [SULFENTRAZONE],Activity,Phaseolus vulgaris [1],22%
same,Activity,Phaseolus vulgaris [2],31 cm
same,Activity,Phaseolus vulgaris [3],12%
same,Activity,Phaseolus vulgaris [4],25 cm
same,Activity,Phaseolus vulgaris [5],17.6%
same,Activity,Phaseolus vulgaris [6],31 cm
same,Activity,Phaseolus vulgaris [7],28 cm
same,Activity,Phaseolus vulgaris [8],134 g/m
same,Activity,Phaseolus vulgaris [9],17.9%
same,Crop_yield,Phaseolus vulgaris [10],3.4 tons/ha
same,Activity,Phaseolus vulgaris [11],26%
same,Activity,Phaseolus vulgaris [12],149 g/m
same,Crop_yield,Phaseolus vulgaris [13],1.4 tons/ha
same,Activity,Phaseolus vulgaris [14],25 cm
same,Activity,Phaseolus vulgaris [15],134 g/m
same,Activity,Phaseolus vulgaris [16],30 cm
same,Crop_yield,Phaseolus vulgaris [17],2.3 tons/ha
same,Crop_yield,Phaseolus vulgaris [18],1.9 tons/ha
same,Activity,Phaseolus vulgaris [19],13.9%
same,Activity,Phaseolus vulgaris [20],128 g/m
same,Crop_yield,Phaseolus vulgaris [21],2.1 tons/ha
same,Crop_yield,Phaseolus vulgaris [22],2.9 tons/ha
same,Activity,Phaseolus vulgaris [23],44%
same,Crop_yield,Phaseolus vulgaris [24],2.7 tons/ha
same,Activity,Phaseolus vulgaris [25],47%
same,Activity,Phaseolus vulgaris [26],21 cm
same,Activity,Phaseolus vulgaris [27],157 g/m
same,Activity,Phaseolus vulgaris [28],130 g/m
same,Activity,Phaseolus vulgaris [29],9%
same,Activity,Phaseolus vulgaris [30],23 cm
same,Crop_yield,Phaseolus vulgaris [31],2.4 tons/ha
same,Activity,Phaseolus vulgaris [32],30%
same,Activity,Phaseolus vulgaris [33],128 g/m
same,Activity,Phaseolus vulgaris [34],111 g/m
